In patent publication US20150225377A1, “VEGFR3 INHIBITORS” (CANCER THERAPEUTICS CRC PTY LIMITED, priority 2012, published 2015):

Biological target: T1, VEGFR3 cytoplasmic domain (Homo sapiens, UniProt P35916)
T1 construct: VEGFR3 cytoplasmic domain (amino acids 798-1298) was purchased as N-terminal GST-fusion protein; GST (N); purchased
Assay: VEGFR3 biochemical assay (AlphaScreen)
Conditions: GST-VEGFR3 cytoplasmic domain, 500 μM ATP (modified form: His-fusion, 1 μM ATP)
Procedure: Compounds of the invention may be tested for in vitro activity in the following assay: A biotin labelled peptide is used as substrate (amino acid sequence: Biotin-[…]NH2). VEGFR3 cytoplasmic domain (amino acids 798-1298) was purchased as N-terminal GST-fusion protein (“the enzyme”). The 15 μL assay reactions are run in Greiner brand white 384-well low volume plates. All reactions contained 10 mM HEPES pH 7.4, 10 mM MgCl2, 0.01% (v/v) Tween-20, 50 μM Na3VO4, 0.01% (w/v) albumin from chicken egg white, 1 mM Dithiothreitol, 111 nM peptide substrate, 500 μM ATP, and 3.8 ng/reaction enzyme, with the enzyme being omitted from negative control reactions. Compounds were added in a volume of […] from dilution series prepared in DMSO, positive and negative control reactions receiving the same volume DMSO without compound. The plates were sealed with adhesive seals and incubated for 90 minutes at 30 degree Celsius. The reactions were stopped with the detection reagents added at the same time as follows: Product formation was quantified as amplified luminescence between PerkinElmer AlphaScreen™ beads, using Streptavidin-coated donor and anti-phosphotyrosine (P-Tyr-100) acceptor beads. To each reaction, 5 μL containing 10 mM HEPES pH 7.4, 25 mM NaCl, 100 mM EDTA, 0.01% (v/v) Tween-20, and 6.25 μg/mL of each bead type were added. Plates were incubated for 6 hours before being read on a PerkinElmer EnVision™ plate reader in HTS Alphascreen™ mode. IC50 values were obtained by calculating percent inhibition (% I) for each reaction relative to controls on the same plate (% I=(I-CN)/(CP-CN) where CN/CP are the averages of the negative/positive reactions, respectively), then fitting the % I data vs. compound concentration [I] to % I=(A+((B−A)/(1+((C/[I])̂D)))) where A is the lower asymptote, B is the upper asymptote, C is the IC50 value, and D is the slope factor.
The above assay was also run in a modified form in some cases (indicated below with *). In these cases, VEGFR3 cytoplasmic domain (amino acids 818-1177, lacking 949-1002 of UniProt accession number P35916) was expressed and purified as N-terminal Hexa-His-fusion protein (“the enzyme”), rather than using the N-terminal GST-fusion protein. The assay conditions were the same as above but with 1 μM ATP and 8 ng/reaction of the enzyme.

T1 sequence (P35916 798-1298 isoform P35916-1): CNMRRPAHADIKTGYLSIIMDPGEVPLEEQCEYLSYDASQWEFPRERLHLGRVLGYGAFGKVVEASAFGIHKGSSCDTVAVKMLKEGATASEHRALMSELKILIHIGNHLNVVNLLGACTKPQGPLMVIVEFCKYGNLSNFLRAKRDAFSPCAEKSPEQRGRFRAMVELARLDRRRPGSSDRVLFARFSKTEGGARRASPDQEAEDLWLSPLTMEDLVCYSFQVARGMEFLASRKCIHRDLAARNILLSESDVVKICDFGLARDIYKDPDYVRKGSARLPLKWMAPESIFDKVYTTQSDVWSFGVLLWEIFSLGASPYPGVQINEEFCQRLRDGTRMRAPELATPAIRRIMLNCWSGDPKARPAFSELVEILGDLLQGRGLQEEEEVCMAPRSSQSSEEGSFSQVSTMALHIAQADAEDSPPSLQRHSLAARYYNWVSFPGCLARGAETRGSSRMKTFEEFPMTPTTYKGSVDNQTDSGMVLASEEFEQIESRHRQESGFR

| IC50 | SMILES |
| --- | --- |
| 40 nM | NC(=O)Cc1ccccc1CCc1nc(Nc2ccc(C3CCNCC3)c(F)c2)ncc1C(F)(F)F [Compound 7, 2-(2-(2-(2-((3-Fluoro-4-(piperidin-4-yl)phenyl)amino)-5-(trifluoromethyl)pyrimidin-4-yl)ethyl)phenyl)acetamide] |
| 34 nM | CN1CCC(c2ccc(Nc3ncc(C(F)(F)F)c(CCc4ccccc4CC(N)=O)n3)cc2F)CC1 [Compound 8, 2-(2-(2-(2-((3-fluoro-4-(1-methylpiperidin-4-yl)phenyl)amino)-5-(trifluoromethyl)pyrimidin-4-yl)ethyl)phenyl)acetamide] |
| 76 nM | CN1CCC(c2ccc(Nc3ncc(C(F)(F)F)c(CCc4ccc(F)cc4CC(N)=O)n3)cc2)CC1 [Compound 10, 2-(5-fluoro-2-(2-(2-((4-(1-methylpiperidin-4-yl)phenyl)amino)-5-(trifluoromethyl)pyrimidin-4-yl)ethyl)phenyl)acetamide] |
| 81 nM | CN1CCC(c2ccc(Nc3ncc(C(F)(F)F)c(CCc4ccccc4CC(N)=O)n3)cn2)CC1 [Compound 14, 2-(2-(2-(2-((6-(1-methylpiperidin-4-yl)pyridin-3-yl)amino)-5-(trifluoromethyl)pyrimidin-4-yl)ethyl)phenyl)acetamide] |
| 67 nM | CN1CCC(c2ccc(Nc3ncc(C(F)(F)F)c(CCc4cc(C(F)(F)F)ccc4CC(N)=O)n3)cc2)CC1 [Compound 17, 2-(2-(2-(2-((4-(1-methylpiperidin-4-yl)phenyl)amino)-5-(trifluoromethyl)pyrimidin-4-yl)ethyl)-4-(trifluoromethyl)phenyl)acetamide] |
| 37 nM | NC(=O)Cc1ccccc1CCc1nc(Nc2ccc(C3CNC3)cc2)ncc1C(F)(F)F [Compound 20, 2-(2-(2-(2-((4-(azetidin-3-yl)phenyl)amino)-5-(trifluoromethyl)pyrimidin-4-yl)ethyl)phenyl)acetamide] |
| 187 nM | CC(N)c1ccc(Nc2ncc(C(F)(F)F)c(CCc3ccccc3CC(N)=O)n2)cn1 (stereo not drawn) [Compound 40, 2-(2-(2-(2-((6-(1-Aminoethyl)pyridin-3-yl)amino)-5-(trifluoromethyl)pyrimidin-4-yl)ethyl)phenyl)acetamide] |

Further lines, the compound ahead of its results:

| SMILES | IC50 |
| --- | --- |
| NC(=O)Cc1ccccc1CCc1ccnc(Nc2ccc(N3CCNCC3)cc2)n1 [Compound 1, 2-(2-(2-(2-((4-(piperazin-1-yl)phenyl)amino)pyrimidin-4-yl)ethyl)phenyl)acetamide] | 161 nM |
| NC(=O)Cc1ccc(F)cc1CCc1nc(Nc2ccc(C3CCNCC3)cc2)ncc1C(F)(F)F [Compound 15, 2-(4-fluoro-2-(2-(2-((4-(piperidin-4-yl)phenyl)amino)-5-(trifluoromethyl)pyrimidin-4-yl)ethyl)phenyl)acetamide] | 31 nM |
| COc1cnc(Nc2ccc(C3CCNCC3)cc2)nc1CCc1ccccc1CC(N)=O [Compound 23, 2-(2-(2-(5-methoxy-2-((4-(piperidin-4-yl)phenyl)amino)pyrimidin-4-yl)ethyl)phenyl)acetamide] | 72 nM |
| NC(=O)Cc1cc(C(F)(F)F)ccc1CCc1nc(Nc2ccc(C3CCNCC3)cc2)ncc1C(F)(F)F [Compound 25, 2-(2-(2-(2-((4-(piperidin-4-yl)phenyl)amino)-5-(trifluoromethyl)pyrimidin-4-yl)ethyl)-5-(trifluoromethyl)phenyl)acetamide] | 278 nM |
| Cc1cnc(Nc2ccc(CN)cc2)nc1CCc1ccccc1CC(N)=O [Compound 27, 2-(2-(2-(2-((4-(aminomethyl)phenyl)amino)-5-methylpyrimidin-4-yl)ethyl)phenyl)acetamide] | 118 nM |
| COC(=O)NC1(c2ccc(Nc3ncc(C)c(CCc4ccccc4CC(N)=O)n3)cc2)CCC1 [Compound 29, methyl 1-(4-(4-(2-(2-amino-2-oxoethyl)phenethyl)-5-methylpyrimidin-2-ylamino)phenyl)cyclobutylcarbamate] | 17 nM |
| Cc1cnc(Nc2cnn(C3CNC3)c2)nc1CCc1ccccc1CC(N)=O [Compound 30, 2-(2-(2-(2-((1-(azetidin-3-yl)-^1H-pyrazol-4-yl)amino)-5-methylpyrimidin-4-yl)ethyl)phenyl)acetamide] | 9 nM |
| Cc1cnc(Nc2ccc(C3CNC3)cc2)nc1CCc1ccccc1CC(N)=O [Compound 32, 2-(2-(2-(2-((4-(azetidin-3-yl)phenyl)amino)-5-methylpyrimidin-4-yl)ethyl)phenyl)acetamide] | 52 nM |
| Cc1cnc(Nc2ccc(C(C)N)cc2)nc1CCc1ccccc1CC(N)=O (stereo not drawn) [Compound 34, 2-(2-(2-(2-((4-(1-aminoethyl)phenyl)amino)-5-methylpyrimidin-4-yl)ethyl)phenyl)acetamide] | 71 nM |
| NC(=O)Cc1ccccc1CCc1nc(Nc2cnn(C3CCNCC3)c2)ncc1C(F)(F)F [Compound 35, 2-(2-(2-(2-((1-(piperidin-4-yl)-^1H-pyrazol-4-yl)amino)-5-(trifluoromethyl)pyrimidin-4-yl)ethyl)phenyl)acetamide] | 23 nM |
| CN1CCC(n2cc(Nc3ncc(C(F)(F)F)c(CCc4ccccc4CC(N)=O)n3)cn2)CC1 [Compound 36, 2-(2-(2-(2-((1-(1-methylpiperidin-4-yl)-^1H-pyrazol-4-yl)amino)-5-(trifluoromethyl)pyrimidin-4-yl)ethyl)phenyl)acetamide] | 50 nM |
| CC(N)c1cccc(Nc2ncc(Cl)c(CCc3ccccc3CC(N)=O)n2)c1 (stereo not drawn) [Compound 38, 2-(2-(2-(2-((3-(1-aminoethyl)phenyl)amino)-5-chloropyrimidin-4-yl)ethyl)phenyl)acetamide] | 76 nM |
| CC(=O)NC(C)c1cccc(Nc2ncc(Cl)c(CCc3ccccc3CC(N)=O)n2)c1 (stereo not drawn) [Compound 39, 2-(2-(2-(2-((3-(1-acetamidoethyl)phenyl)amino)-5-chloropyrimidin-4-yl)ethyl)phenyl)acetamide] | 10 nM |
| NC(=O)Cc1cccc(F)c1CCc1nc(Nc2ccc(C3CCNCC3)cc2)ncc1C(F)(F)F [Compound 41] | 26 nM |
